system: not listed separately; experiment: Cytotoxicity against human MT4 cells assessed as cell viability after 96 hrs by MTT assay; type: cell-based; details: not given

SMILES | CC50 at 96 h [µM]
COc1cc(C(=O)OCCCn2nc3ccccc3n2)cc(OC)c1OC | > 100
COc1cc(/C=C/C(=O)OCCn2nc3ccccc3n2)cc(OC)c1OC | ≥ 100
O=C(Cn1nnc2ccccc21)N1CCOCC1 | > 100
CN1CCN(CCn2nnc3ccccc32)CC1 | > 100
O=C(O)COc1ccc(-n2nc3ccccc3[n+]2[O-])cc1 | > 100
COc1cc(C(=O)OCCCn2nnc3ccccc32)cc(OC)c1OC | > 100
CC(CC(=O)O)n1nc2ccc([N+](=O)[O-])cc2n1 (centres undefined) | > 100

system: not listed separately; experiment: Cytotoxicity against MDBK cells assessed as cell viability after 48 to 96 hrs by MTT assay; type: cell-based, Bos taurus; details: cattle

SMILES | CC50 [µM]
COc1cc(C(=O)OCCCn2nc3ccccc3n2)cc(OC)c1OC | > 100
COc1cc(/C=C/C(=O)OCCn2nc3ccccc3n2)cc(OC)c1OC | > 100
O=C(Cn1nnc2ccccc21)N1CCOCC1 | > 100
CN1CCN(CCn2nnc3ccccc32)CC1 | > 100
O=C(O)COc1ccc(-n2nc3ccccc3[n+]2[O-])cc1 | > 100
COc1cc(C(=O)OCCCn2nnc3ccccc32)cc(OC)c1OC | ≥ 100
CC(CC(=O)O)n1nc2ccc([N+](=O)[O-])cc2n1 (centres undefined) | > 100

system: not listed separately; experiment: Cytotoxicity against BHK cells assessed as cell viability after 48 to 96 hrs by MTT assay; type: cell-based, Mesocricetus auratus; details: hamster

SMILES | CC50 [µM]
COc1cc(C(=O)OCCCn2nc3ccccc3n2)cc(OC)c1OC | > 100
COc1cc(/C=C/C(=O)OCCn2nc3ccccc3n2)cc(OC)c1OC | > 100
O=C(Cn1nnc2ccccc21)N1CCOCC1 | > 100
CN1CCN(CCn2nnc3ccccc32)CC1 | > 100
O=C(O)COc1ccc(-n2nc3ccccc3[n+]2[O-])cc1 | > 100
COc1cc(C(=O)OCCCn2nnc3ccccc32)cc(OC)c1OC | > 100
CC(CC(=O)O)n1nc2ccc([N+](=O)[O-])cc2n1 (centres undefined) | > 100

system: not listed separately; experiment: Cytotoxicity against african green monkey Vero 76 cells assessed as cell viability after 48 to 96 hrs by crystal violet staining method; type: cell-based; details: chlorocebus sabaeus

SMILES | CC50 [µM]
COc1cc(C(=O)OCCCn2nc3ccccc3n2)cc(OC)c1OC | > 100
COc1cc(/C=C/C(=O)OCCn2nc3ccccc3n2)cc(OC)c1OC | > 100
O=C(Cn1nnc2ccccc21)N1CCOCC1 | > 100
CN1CCN(CCn2nnc3ccccc32)CC1 | > 100
O=C(O)COc1ccc(-n2nc3ccccc3[n+]2[O-])cc1 | > 100
COc1cc(C(=O)OCCCn2nnc3ccccc32)cc(OC)c1OC | 100
CC(CC(=O)O)n1nc2ccc([N+](=O)[O-])cc2n1 (centres undefined) | > 100

system: Bovine viral diarrhea virus 1; experiment: Antiviral activity against BVDV infected in MDBK cells assessed as inhibition of virus-induced cytopathogenicity after 3 to 4 days by MTT assay; type: functional, organism-based; details: Bovine viral diarrhea virus isolates and strains

SMILES | EC50 [µM]
COc1cc(C(=O)OCCCn2nc3ccccc3n2)cc(OC)c1OC | > 100
COc1cc(/C=C/C(=O)OCCn2nc3ccccc3n2)cc(OC)c1OC | > 100
O=C(Cn1nnc2ccccc21)N1CCOCC1 | > 100
CN1CCN(CCn2nnc3ccccc32)CC1 | > 100
O=C(O)COc1ccc(-n2nc3ccccc3[n+]2[O-])cc1 | > 100
COc1cc(C(=O)OCCCn2nnc3ccccc32)cc(OC)c1OC | > 100
CC(CC(=O)O)n1nc2ccc([N+](=O)[O-])cc2n1 (centres undefined) | > 100

system: Yellow fever virus; experiment: Antiviral activity against YFV infected in BHK-21 cells assessed as inhibition of virus-induced cytopathogenicity after 3 to 4 days by MTT assay; type: functional, organism-based; details: not given

SMILES | EC50 [µM]
COc1cc(C(=O)OCCCn2nc3ccccc3n2)cc(OC)c1OC | > 100
COc1cc(/C=C/C(=O)OCCn2nc3ccccc3n2)cc(OC)c1OC | > 100
O=C(Cn1nnc2ccccc21)N1CCOCC1 | > 100
CN1CCN(CCn2nnc3ccccc32)CC1 | > 100
O=C(O)COc1ccc(-n2nc3ccccc3[n+]2[O-])cc1 | > 100
COc1cc(C(=O)OCCCn2nnc3ccccc32)cc(OC)c1OC | > 100
CC(CC(=O)O)n1nc2ccc([N+](=O)[O-])cc2n1 (centres undefined) | > 100

system: Mammalian orthoreovirus 1; experiment: Antiviral activity against Reo-1 virus infected in BHK-21 cells assessed as inhibition of virus-induced cytopathogenicity after 3 to 4 days by MTT assay; type: functional, cell-based; details: Mammalian orthoreovirus 1, BHK-21

SMILES | EC50 [µM]
O=C(O)COc1ccc(-n2nc3ccccc3[n+]2[O-])cc1 | > 100

system: Coxsackievirus B5; experiment: Antiviral activity against human CVB5 infected in african green monkey Vero76 cells assessed as inhibition of virus-induced cytopathogenicity after 3 days by plaque reduction assay; type: functional, organism-based; details: Enterovirus B, Vero 76, 72 h

SMILES | EC50 [µM]
COc1cc(C(=O)OCCCn2nc3ccccc3n2)cc(OC)c1OC | > 100
COc1cc(/C=C/C(=O)OCCn2nc3ccccc3n2)cc(OC)c1OC | > 100
O=C(Cn1nnc2ccccc21)N1CCOCC1 | > 100
CN1CCN(CCn2nnc3ccccc32)CC1 | > 100
O=C(O)COc1ccc(-n2nc3ccccc3[n+]2[O-])cc1 | > 100
COc1cc(C(=O)OCCCn2nnc3ccccc32)cc(OC)c1OC | > 100
CC(CC(=O)O)n1nc2ccc([N+](=O)[O-])cc2n1 (centres undefined) | > 100

system: Human orthopneumovirus; experiment: Antiviral activity against human RSV infected in african green monkey Vero76 cells assessed as inhibition of virus-induced cytopathogenicity after 5 days by plaque reduction assay; type: functional, organism-based; details: human respiratory syncytial virus, Vero 76, 120 h

SMILES | EC50 [µM]
COc1cc(C(=O)OCCCn2nc3ccccc3n2)cc(OC)c1OC | > 100
COc1cc(/C=C/C(=O)OCCn2nc3ccccc3n2)cc(OC)c1OC | > 100
O=C(Cn1nnc2ccccc21)N1CCOCC1 | > 100
CN1CCN(CCn2nnc3ccccc32)CC1 | > 100
O=C(O)COc1ccc(-n2nc3ccccc3[n+]2[O-])cc1 | > 100
COc1cc(C(=O)OCCCn2nnc3ccccc32)cc(OC)c1OC | > 100
CC(CC(=O)O)n1nc2ccc([N+](=O)[O-])cc2n1 (centres undefined) | > 100

system: Poliovirus 1; experiment: Antiviral activity against Human poliovirus 1 Sabin infected in african green monkey Vero76 cells assessed as inhibition of virus-induced cytopathogenicity by plaque reduction assay; type: functional, organism-based; details: Enterovirus C, Vero 76

SMILES | EC50 [µM]
O=C(O)COc1ccc(-n2nc3ccccc3[n+]2[O-])cc1 | > 100

system: Human immunodeficiency virus 1; experiment: Antiviral activity against HIV-1 infected in MT4 cells assessed as inhibition of virus-induced cytopathogenicity after 4 days by MTT assay; type: functional, organism-based; details: Human immunodeficiency virus 1, MT4, 96 h

SMILES | EC50 [µM]
COc1cc(C(=O)OCCCn2nc3ccccc3n2)cc(OC)c1OC | > 100
COc1cc(/C=C/C(=O)OCCn2nc3ccccc3n2)cc(OC)c1OC | > 100
O=C(Cn1nnc2ccccc21)N1CCOCC1 | > 100
CN1CCN(CCn2nnc3ccccc32)CC1 | > 100
O=C(O)COc1ccc(-n2nc3ccccc3[n+]2[O-])cc1 | > 100
COc1cc(C(=O)OCCCn2nnc3ccccc32)cc(OC)c1OC | > 100
CC(CC(=O)O)n1nc2ccc([N+](=O)[O-])cc2n1 (centres undefined) | > 100

system: Vesicular stomatitis virus; experiment: Antiviral activity against VSV; type: functional, organism-based; details: not given

SMILES | EC50 [µM]
COc1cc(C(=O)OCCCn2nc3ccccc3n2)cc(OC)c1OC | > 100
COc1cc(/C=C/C(=O)OCCn2nc3ccccc3n2)cc(OC)c1OC | > 100
O=C(Cn1nnc2ccccc21)N1CCOCC1 | > 100
CN1CCN(CCn2nnc3ccccc32)CC1 | > 100
O=C(O)COc1ccc(-n2nc3ccccc3[n+]2[O-])cc1 | > 100
COc1cc(C(=O)OCCCn2nnc3ccccc32)cc(OC)c1OC | > 100
CC(CC(=O)O)n1nc2ccc([N+](=O)[O-])cc2n1 (centres undefined) | > 100

system: Vaccinia virus; experiment: Antiviral activity against Vaccinia virus; type: functional, organism-based; details: Orthopoxvirus vaccinia

SMILES | EC50 [µM]
COc1cc(C(=O)OCCCn2nc3ccccc3n2)cc(OC)c1OC | > 100
COc1cc(/C=C/C(=O)OCCn2nc3ccccc3n2)cc(OC)c1OC | > 100
O=C(Cn1nnc2ccccc21)N1CCOCC1 | > 100
CN1CCN(CCn2nnc3ccccc32)CC1 | > 100
O=C(O)COc1ccc(-n2nc3ccccc3[n+]2[O-])cc1 | > 100
COc1cc(C(=O)OCCCn2nnc3ccccc32)cc(OC)c1OC | > 100
CC(CC(=O)O)n1nc2ccc([N+](=O)[O-])cc2n1 (centres undefined) | > 100

Reference: ChEMBL document CHEMBL3734667 (Bioorg Med Chem, 2015)
